Assays:
[1] = tested on: HepG2 cells; assay: HepG2 cytotoxicity assay; type: cell-based; conditions: mean
Procedure, shortened: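 Once incubation ended, the HepG2 plates were warmed to room temperature for 30 min alongside the CellTiter-Glo reagent. Luminescent signal was developed by reagent addition and stabilized for 10 min before plate reading.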

[2] = tested on: P. falciparum stages IV–V gametocytes; assay: Gametocytocidal ATP-depletion assay (gametocyte ATP bioluminescence); type: cell-based, Plasmodium falciparum
Procedure, shortened: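 Read-out is luciferase luminescence of parasite ATP (BacTiter-Glo), standing in for viability. Double-purified mature stage IV–V gametocytes, 12,500 per well, were exposed 48 h at 37 °C in low-O2 gas; screening concentration 2 μM.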

[3] = tested on: P. falciparum asexual blood stages; conditions: TCAMS data; ref 1 (Gamo et al., 2010); read-out: Pf Asexual blood stages XC50; cited from earlier work
[4] = tested on: P. falciparum stage V female gametocytes; assay: P. falciparum female gametocyte activation assay (Pf FGAA), 24 h or 48 h preincubation, Pfs25 expression readout; type: cell-based, Plasmodium falciparum NF54; conditions: mean; read-out: Gametocytes mean Pf FGAA IC50
Procedure, shortened: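 Female activation, triggered by xanthurenic acid and cooling, was scored by imaging Cy3-labelled anti-Pfs25 female gametes after 24 h at 26 °C. Beforehand, purified NF54 stage V gametocytes had been incubated with compound for either 24 h or 48 h (37 °C, 3% O2). Values are pIC50 from full-curve regression.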

| IC50 [4] [nM] | Compound | HepG2 cells mean TOX50 [1] [µM] | Gametocytes mean ATP inhibition at 2µM (%) [2] [%] | IC50 [3] [nM] |
| --- | --- | --- | --- | --- |
| 90 | CN(CCCNCc1ccc2ccccc2c1)CCCNCc1ccc2ccccc2c1.Cl [TCMDC-137908] | 5.01 | 72.34 | 390 |
| 700 | COc1ccc2ccccc2c1CNCCCCCCNCc1c(OC)ccc2ccccc12.Cl [TCMDC-137915] | 4.22 | 20.95 | 710 |
| 1470 | COc1ccc2c(c1)CC(C)(C)NC2CCCCCCCCC1NC(C)(C)Cc2cc(OC)ccc21.O=C(O)C(=O)O (centres unmarked) [TCMDC-137935] | 5.62 | 1.39 | 1300 |
| 1130 | COc1ccccc1-c1nc2c(ccc3nc(N)nc(N)c32)[nH]1 [TCMDC-137976] | 2.87 | 85.21 | 180 |
| 770 | CC(C)(C)c1ccc(-c2cc3c(ccc4nc(N)nc(N)c43)[nH]2)cc1 [TCMDC-137977] | 1.86 | 65.65 | 110 |
| 260 | CC(C)(C)c1ccc(-c2nc3c(ccc4nc(N)nc(N)c43)[nH]2)cc1.Cl [TCMDC-137984] | 2.12 | 79.78 | 160 |
| 990 | CCCN(CCC)CCCN(CCCN(CCC)CCC)c1cc(C)nc(Nc2ccc3cc(Br)ccc3c2)n1.Cl [TCMDC-138006] | 3.43 | -22.37 | 210 |
| 640 | CCCCCCCCN1CCN(CCCCCCNc2c3ccccc3nc3ccccc23)CC1.Cl [TCMDC-138015] | 3.35 | 57.24 | 160 |
| 700 | Cl.Clc1ccc(CNCCCCCCCNCc2ccc(Cl)c(Cl)c2)cc1Cl [TCMDC-138075] | 4.57 | -3.08 | 370 |
| 1680 | COc1cc2nc(N3CCC(CNC(=O)c4ccc(-c5ccc(-c6noc(C)n6)cc5C)cc4)CC3)nc(N)c2cc1OC [TCMDC-138155] | 7.62 | 5.13 | 220 |
| 980 | CC(=O)c1ccc2nc[nH]c(=O)c2c1 [TCMDC-138172] | 6.24 | 67.05 | 720 |
| 540 | Cc1ccc(C(=O)Nc2ccc(Nc3ccnc4cc(-c5ccccn5)ccc34)cc2O)cc1.Cl [TCMDC-138205] | 1.27 | 46.13 | 110 |
| 3110 | COc1ccc(N2CCN(CCCCNCc3ccc(NC(=O)c4cc(Cl)cc(Cl)c4)cc3)CC2)c(OC)c1 [TCMDC-138226] | 4.42 | 17.06 | 250 |
| 1710 | CN(C)CCNCc1ccc(-c2ccc3c(Nc4ccc(Cl)cc4F)ccnc3c2)o1 [TCMDC-138391] | 0.89 | 2.24 | 210 |
| 640 | Fc1cc(Cl)ccc1Nc1ccnc2cc(-c3ccc(CN4CCOCC4)o3)ccc12 [TCMDC-138393] | 5.62 | 87.52 | 640 |
| 1560 | CN(C)CCNCc1ccc(-c2ccc3c(Nc4ccc(Oc5ccccc5)cc4)ccnc3c2)o1 [TCMDC-138399] | 5.69 | 14.30 | 280 |
| 7020 | CN(C)CCN(C)Cc1cccc(-c2ccc3c(Nc4ccc(F)cc4Cl)ccnc3c2)c1 [TCMDC-138416] | 6.10 | 39.96 | 110 |
| 2050 | CN(C)CCN(C)Cc1ccc(-c2ccc3c(Nc4ccc(Oc5ccccn5)cc4)ccnc3c2)o1 [TCMDC-138426] | 5.37 | 16.13 | 420 |
| 980 | CN1CCN(CCCNCc2cccc(Nc3nccc(Nc4ccc(Oc5ccccc5)cc4)n3)c2)CC1 [TCMDC-138616] | 4.68 | 13.07 | 760 |
| 1490 | Cl.O=C(NCCCCN1CCC(c2ccc3c(c2O)CCCC3)CC1)c1ccc(NC(=O)c2ccc(Cl)cc2)cc1 [TCMDC-138645] | 3.80 | -0.21 | 240 |
| 360 | C=CCC1OC(=O)c2cc(OC)cc(OC)c21 (centres unmarked) [TCMDC-138677] | 2.29 | 95.50 | 340 |

| Compound | IC50 [4] [nM] | HepG2 cells mean TOX50 [1] [µM] | Gametocytes mean ATP inhibition at 2µM (%) [2] [%] | IC50 [3] [nM] |
| --- | --- | --- | --- | --- |
| CCOc1cc(CNCCCCCCNCc2cc(OCC)c(OCC)c3ccccc23)c2ccccc2c1OCC.CS(=O)(=O)O [TCMDC-137939] | 1780 | 2.00 | 5.51 | 280 |
| CCOc1cc2ccccc2cc1CNCCCCCCNCc1cc2ccccc2cc1OCC.CS(=O)(=O)O [TCMDC-137940] | 1290 | 6.06 | 2.59 | 980 |
| COc1cc2ccccc2cc1CCNCCCCNCCc1cc2ccccc2cc1OC.CS(=O)(=O)O [TCMDC-137944] | 620 | 1.66 | 84.04 | 400 |
| COc1cc2c(OC)cccc2cc1CNCCCCCCNCc1cc2cccc(OC)c2cc1OC.CS(=O)(=O)O [TCMDC-137945] | 1820 | 4.90 | -15.51 | 820 |
| CCCOc1c(CCNCCCCNCCc2ccc3ccccc3c2OCCC)ccc2ccccc12.CS(=O)(=O)O [TCMDC-137950] | 640 | 1.72 | 95.44 | 480 |
| CCCOc1ccc(CCNCCCCNCCc2ccc(OCCC)c3ccccc23)c2ccccc12.CS(=O)(=O)O [TCMDC-137952] | 610 | 2.16 | 94.33 | 920 |
| COc1ccc2c(OC)c(CNCCCCCCNCc3ccc4cc(OC)ccc4c3OC)ccc2c1.CS(=O)(=O)O [TCMDC-137953] | 1000 | 2.11 | 2.77 | 920 |
| COc1c(CNCCCCCCNCc2cc(Cl)c3ccccc3c2OC)cc(Cl)c2ccccc12.CS(=O)(=O)O [TCMDC-137958] | 1180 | 4.62 | -6.18 | 940 |
| COc1ccc(CCNCCCCNCCc2ccc(OC)c3ccccc23)c2ccccc12.CS(=O)(=O)O [TCMDC-137961] | 480 | 2.14 | 90.63 | 450 |
| CCCCCCOc1ccc2ccccc2c1CNCCCCCCNCc1c(OCCCCCC)ccc2ccccc12.CS(=O)(=O)O [TCMDC-137963] | 1500 | 2.40 | 77.54 | 1060 |
| CC(C)Oc1ccc2ccccc2c1CNCCCCCCNCc1c(OC(C)C)ccc2ccccc12.CS(=O)(=O)O [TCMDC-137965] | 950 | 1.91 | 37.88 | 610 |
| CCCOc1ccc2ccccc2c1CNCCCCCCNCc1c(OCCC)ccc2ccccc12.CS(=O)(=O)O [TCMDC-137966] | 1030 | 2.00 | 42.35 | 790 |
| CC(C)COc1ccc2ccccc2c1CNCCCCCCNCc1c(OCC(C)C)ccc2ccccc12.CS(=O)(=O)O [TCMDC-137972] | 810 | 2.19 | 92.13 | 690 |
| CCCCOc1c(CNCCCCCCNCc2ccc3ccccc3c2OCCCC)ccc2ccccc12.CS(=O)(=O)O [TCMDC-137975] | 1490 | 2.21 | 37.85 | 870 |
| COc1cc2nc(NCc3cccc(CNC(=O)c4ccc(-c5ccc(C(C)=O)cc5)cc4)c3)nc(N)c2cc1OC.O=C(O)C(F)(F)F [TCMDC-138177] | 4730 | 6.82 | -19.05 | 120 |
| COc1cc2nc(N3CCN(C(=O)c4c(Cl)nsc4-c4ccccc4Cl)CC3)nc(N)c2cc1OC.O=C(O)C(F)(F)F [TCMDC-138186] | 990 | 5.89 | 69.90 | 530 |
| COc1cc2nc(N3CCC(CCCC4CCNCC4)CC3)nc(NCc3ccccn3)c2cc1OC.O=C(O)C(F)(F)F [TCMDC-138494] | 6860 | 18.51 | 35.38 | 760 |

From PMC5442318, “Hundreds of dual-stage antimalarial molecules discovered by a functional gametocyte screen” (Nature Communications, 2017)
